Results reported in patent US6056966A, “Method and compositions for treating impotence” (Baker Norton Pharmaceuticals, Inc., priority 1998, dated 2000).
“Also recorded” adds a separate entry of the source.

How the values were obtained:
guinea pig penis = assay: Topical application of nitrates to the penis of guinea pigs (change in penile volume); type: in vivo, male outbred Hartley guinea pigs; conditions: for AUC / Peak Effect (% change) / Time of Peak Effect / AUC, % of 1,5-PDN / Peak Effect, % of 1,5-PDN: guinea pig, in vivo
Source text: Sixteen (16) male outbred Hartley guinea pigs were weighed and placed into treatment groups as follows:
The animals were placed in dorsal recumbency and held in place by restraints. The penis was extruded from the prepuce. Care was taken to not manipulate the penis. Length and diameter measurements were made using digital calipers. The length measurement was taken from the prepuce to the tip of the glans when the penis was extended. The diameter was taken 0.5 cm proximally from the tip of the glans.
The appropriate amount of test material was applied with a Wiretrol™ pipette to the base of the exposed penis. When application was complete, a timer was started. Measurements were taken at 0, 1, 2, 5, 10 and 15 minutes after application or until detumescence was observed.
The same procedure was followed to topically apply a series of various other nitrate and dinitrate compounds (in neat form) to the penis of guinea pigs. A summary of the activity of this series of nitrate compounds is shown in Table 2, with the AUC and peak effect values for each compound compared to 1,5-PDN.
The same test procedure was followed as in Example 3, but applying a 10% solution of NTG to the penis in varying dosage amounts.
Twelve (12) male Hartley guinea pigs were placed into treatment groups as follows: […]

penis = conditions: cited from earlier work
rat aortic rings = assay: Vascular reactivity: relaxation of rat aortic rings precontracted with phenylephrine; type: cell-based, Sprague-Dawley rats; conditions: FIG. 11, rat aortic strips
Source text: Aortic rings (2-3 mm wide) from Sprague-Dawley rats were isolated and placed in a tissue bath. The vessels were precontracted with small amounts of phenylephrine. A transducer connected to a recorder was used to assess changes in tension. As noted in FIG. 10, there was no difference in vascular relaxation, either in potency or efficacy, between 1,5-PDN and 1,5-pentane dinitrite.

[1] = Intravenous injection of NTG vs. 1,5-pentane dinitrate in conscious rats (mean arterial blood pressure); type: in vivo, rat; conditions: 30 μg
Description: Rats (n=3) with indwelling catheters in the femoral artery for blood pressure measurements and vein for drug administration were given 1 dose of NTG (30 μg) and 6 doses of 1,5-PDN (30 μg-2000 μg) or vehicle (ethanol) in the conscious state. Changes in mean arterial blood pressure (diastolic blood pressure+1/3 (systolic-diastolic blood pressure)) were assessed after each dose of nitrate was given. About 0.5 hr to 1 hr separated the administration of each drug and dose.

penile smooth muscle = conditions: cited from earlier work
corpus cavernosum = assay: Intracavernosal injection in anesthetized rats (cavernosal and arterial blood pressure)

Structure (SMILES) | AUC (guinea pig penis) | Peak Effect (% change) (guinea pig penis) | Time of Peak Effect (guinea pig penis) [min] | AUC, % of 1,5-PDN (guinea pig penis) [%] | Peak Effect, % of 1,5-PDN (guinea pig penis) [%] | further results
CC(C)CO[N+](=O)[O-] [Isobutyl nitrate] | 367 | 38.1 | 2 |  |  | 
CCCC(C)O[N+](=O)[O-] (centres unmarked) [2-Pentane nitrate] | 323 | 36.0 | 5 | 73 | 93 | 
CC(C)=CCO[N+](=O)[O-] [2-Methyl-2-butene-4-nitrate] | 305 | 32.6 | 5 | 69 | 84 | 
C=CCCCO[N+](=O)[O-] [1-Pentene-5-nitrate] | 309 | 35.4 | 2 | 70 | 91 | 
CC(C)CCO[N+](=O)[O-] [Isoamyl nitrate] | 309 | 40.3 | 2 | 70 | 104 | 
O=[N+]([O-])OC1CCCC1 [Cyclopentyl nitrate] | 380 | 31.8 | 10 | 86 |  | 
O=[N+]([O-])OCC(CO[N+](=O)[O-])O[N+](=O)[O-] [NTG, nitroglycerin] |  |  |  |  |  | patients with erections sufficient for vaginal penetration (penis; at home): 30 % of patients; patients with some response (penis; in vivo): 71 % of patients; vascular relaxation: NTG vs 1,5-PDN (rat aortic rings): no appreciable difference in the vascular relaxation; decrease in arterial pressure [1]: ~25%; headache, systemic blood pressure (penile smooth muscle; in vivo): headaches were a common occurrence; also recorded: decrease in systemic blood pressure and development of headache; relaxation of penile smooth muscle and vascular tissue (penile smooth muscle; in vivo): causes relaxation of penile smooth muscle and vascular tissue, including cavernosal tissue; response compared with papaverine or placebo (penile smooth muscle; only one trial): better than papaverine, another vasodilator, or placebo; change in intracavernosal pressure (corpus cavernosum; anesthetized rats, FIGS. 6-8): relatively small, dose-dependent increases in intracavernosal pressure; effect on systemic arterial blood pressure (corpus cavernosum; anesthetized rats, FIGS. 6-8): almost equivalent systemic ("downstream") reductions in arterial blood pressure; systemic reduction in arterial blood pressure (corpus cavernosum; at the highest dose used): over 30 mmHg; effect on penile volume (guinea pig penis; topical, FIGS. 1-3, 1,5-PDN vs saline, 10% NTG solution vs 1,5-PDN): minimal effect on penis volume as compared to 1,5-PDN
